Source: ChEMBL document CHEMBL1142161, “Hepatitis C virus (HCV) NS5B nonnucleoside inhibitors specifically block single-stranded viral RNA synthesis catalyzed by HCV replication complexes in vitro” (Antimicrob Agents Chemother, 2007)
Activity calls are given as the source filed them. No cut-off for these calls is given here.

Legend:
[1] = Inhibition of replication in M414T cells containing mutant HCV replicons after 72 hrs; assay type: functional, cell-based, Homo sapiens
[2] = (§1) Inhibition of replication in Huh-9-13 cells containing Wild type HCV replicons after 72 hrs; assay type: functional, cell-based; details: Homo sapiens
Hepacivirus hominis = experiment: Inhibition of HCV ssRNA synthesis by crude replicase complexes prepared from Huh-9-13 cells; assay type: functional
Homo sapiens = species: Homo sapiens; experiment: as §1; assay type: functional, cell-based

SMILES: CC(C)CCn1c(=O)c(C2=NS(=O)(=O)c3ccccc3N2)c(O)c2ccccc21
- EC50 [1]: > 31600 nM
- EC50 [2]: 900 nM
- Activity (Hepacivirus hominis): Dose-dependent effect

SMILES: O=C(N[C@@H](Cc1c[nH]c2ccccc12)C(=O)O)c1ccc2c(c1)nc(-c1ccoc1)n2C1CCCCC1
- Activity (Homo sapiens): inactive
- Activity (Hepacivirus hominis): Dose-dependent effect
